Measurements taken from US20200030355A1, “COMBINATION THERAPY FOR TREATING CANCER” (Epizyme, Inc., priority 2014, published 2020).

Assays:
[1] = system: SKM-1 (non-MLL-rearranged AML); assay: Combination proliferation study with Compound A2 (ATP/CellTiter-Glo, Chou-Talalay combination index); format: cell-based, human
Description: (§1) Graphs representing values of combination index (CI) versus Fractional effect (Fa) known as Fa-CI plots were generated and synergy was evaluated.
as §1
(§2) The HP-D300 digital dispenser (Tecan) was used to dispense compounds in a combinatorial matrix. […] Cell viability was measured via ATP content using CellTiter-Glo® (Promega).
(§3) Viability was determined using CellTiter-Glo® (Promega).
MV4-11 cells were maintained in IMDM supplemented with 10% fetal bovine serum. MOLM-13 and SKM-1 cells were maintained in Roswell Park Memorial Institute medium (RPMI) supplemented with 10% fetal bovine serum. They were cultured in flasks or plates in a humidified 5% CO2 atmosphere.
(§4) Proliferation studies were performed using MOLM-13, MV4-11 and SKM-1 cell lines in vitro to evaluate the cancer cell killing effect of a combination of two agents together on cell growth. Initial proliferation studies were performed to determine the IC50 values of a given compound in each cell line. The cell counts were measured by ATP quantitation using the Promega Cell Titer Glo kit and luminescence values correspond to the amount of ATP in a given well.
Compounds evaluated for synergy in the co-treatment phase were tested in a range which was bracketed around the IC50's. The compounds were plated to a 96 well plate in a matrix format which includes increasing concentrations of each drug in the combination in a constant ratio, in addition to the effect of each compound alone in the study. Cells were seeded and grown in the log-linear phase for 3 or 7 days in the cotreatment phase. Maximum and minimum inhibition (DMSO alone) controls were used in each plate to calculate fraction affected (Fa) of a test well. DMSO concentration was kept at 0.1% v/v. The drug combination analysis was performed utilizing the Chou-Talalay method. Synergy was determined using the software package Calcusyn by Biosoft. The combination index (CI) is the term used to describe the level of synergy or antagonism in a given test system. A combination index less than one indicates synergy, and a CI greater than one indicates antagonism.
The drug combination analysis was performed using the Chou-Talalay method. Graphs representing values of combination index (CI) versus Fractional effect (Fa) known as Fa-CI plots were generated and synergy was evaluated.

MV4-11 (MLL-AF4) = assay: as above; format: cell-based, human; details: for Combination with Compound A2, MV4-11 (MLL-AF4): 7 Day Cotreatment Model, Table 4
Description: The acute myelogenous leukemia cell lines MV4-11 (MLL-AF4) and MOLM-13 (MLL-AF9) were obtained from American Type Culture Collection (ATCC; Rockville, Md.) and Deutsche Sammlung von Mikroorganismen and Zellkulturen (DSMZ; Braunschweig, Germany) respectively.
as §4, with “Studies” for “Proliferation studies”, “MLL-rearranged” for “MOLM-13, MV4-11 and SKM-1”, “anti-proliferative” for “cancer cell killing”, “IC50” for “IC50 values”, “corresponded” for “correspond”
Compounds were evaluated for synergy in the co-treatment phase by testing the compounds in a concentration range which was bracketed around their IC50 values. The compounds were plated to a 96 well plate in a matrix format (FIG. 3) which includes increasing concentrations of each drug in the combination in a constant ratio, in addition to the effect of each compound alone in the study. Cells were seeded and grown in the log-linear phase for 3 or 7 days in the co-treatment phase. Minimum inhibition (DMSO alone) controls were used in each plate to calculate fraction affected (Fa) of a test well. DMSO concentration was kept at 0.1% v/v.
The drug combination analysis was performed utilizing the Chou-Talalay method Synergy was determined using the software package Calcusyn by Biosoft. The combination index (CI) is a quantitative term used to describe the level of synergy or antagonism in a given test system. A combination index less than one indicates synergy, and a CI greater than one indicates antagonism. Further, strong synergism is achieved when the CI value falls below 0.3.
(§5) Graphs representing values of combination index (CI) versus Fractional effect (Fa) known as Fa-CI plots were generated and synergy was evaluated. Drug synergy was statistically defined by CI values less than 1, antagonism by CI>1 and additive effect by CI equal to 1.
as §5, §2, §3, §4
These studies were performed to evaluate both the combinatorial effect of compounds on cell killing and the durability of the effect by washing out one of the agents.
Compounds evaluated for synergy in the co-treatment phase were tested in a range which was bracketed around the IC50's. The compounds were plated to a 96 well plate in a matrix format which includes increasing concentrations of each drug in the combination in a constant ratio, in addition to the effect of each compound alone in the study.

MOLM-13 (MLL-AF9) [2] = assay: as above; format: cell-based, human
How it was run: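 Viability by CellTiter-Glo ATP luminescence; Fa relative to DMSO controls. Combination index by Chou-Talalay (CI<1 synergy, =1 additive, >1 antagonism).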

OCI-AML-4 (MLL-ENL) = assay: EPZ-5676 7-day pre-treatment, then second compound 72 hours, growth inhibition GI100 shift; primary screen and retest (Example 7); format: cell-based; details: 300 nM EPZ-5676 7-day pre-treatment, second compound 72 hours; for Combination with EPZ-5676, OCI-AML-4 (MLL-ENL) Primary screen: ATPLite; for Combination with EPZ-5676, OCI-AML-4 (MLL-ENL) Retest: Cell Titer Glo
Description: (§6) Cells were then equilibrated in incubators for 24 hours before treatment with a second compound. Treated assay plates were incubated with a second compound for 72 hours. After this time, plates were developed for endpoint analysis using ATPLite to measure ATP content, which is used as an indicator of cell viability.
(§7) Cells were then treated with a second compound for 72 hours. After this time, plates were developed for endpoint analysis using Cell Titer Glo to measure ATP content, which is used as an indicator of cell viability.
(§8) “N/D” means the GI100 of the second compound could not be determined for both conditions and “-” means not tested.
(§9) Growth Inhibition (GI) as a measure of cell viability: The cell viability of vehicle was measured at the time of dosing the second agent (T0) and after seventy-two hours (T72). […] A GI 200% represents complete death of all cells in the culture well. Compounds reaching an activity plateau of GI 200% are considered cytotoxic. GI is calculated by applying the following test and equation: […]
(§10) where T is the signal measure for a test article, V is the vehicle-treated control measure, and V0 is the vehicle control measure at time zero.

MOLM-13 (MLL-AF9) [3] = assay: as above; format: cell-based, human; details: second compound 72 hours; for Combination with EPZ-5676, MOLM-13 (MLL-AF9) Retest: 150 nM EPZ-5676 7-day pre-treatment, Cell Titer Glo; for Combination with EPZ-5676, MOLM-13 (MLL-AF9) Primary screen: 300 nM EPZ-5676 7-day pre-treatment, ATPLite
Description: as §6, §7, §8, §9, §10

SKM-1 (non-MLLr) = assay: as above; format: cell-based, human; details: 300 nM EPZ-5676 7-day pre-treatment; for Combination with EPZ-5676, SKM-1 (non-MLLr) Primary screen: ATPLite; for Combination with EPZ-5676, SKM-1 (non-MLLr) Retest: Cell Titer Glo
Description: as §6, §7, §8, §9, §10

SKM-1 cells = assay: EPZ-5676 300 nM 7-day pre-treatment, then second compound 72 hours, ATPLite, IC50 shift (Example 6); format: cell-based, human; details: SKM-1 cells; 300 nM EPZ-5676 or DMSO 7-day pre-treatment, then 2nd compound 72 hours, ATPLite; Synergy = IC50 of 2nd compound decreased by 2-fold or more vs DMSO control
Description: as §6
(§11) “N/D” means that IC50 of the second compound could not be determined for both conditions.

MOLM-13 cells = assay: as above; format: cell-based, human; details: 300 nM EPZ-5676 or DMSO 7-day pre-treatment, then 2nd compound 72 hours, Synergy = IC50 of 2nd compound decreased by 2-fold or more vs DMSO control
Description: as §6, §11

[4] = 7 Day Cotreatment Model, Table 4

Structure (SMILES)	Combination with Compound A2, MOLM-13 (MLL-AF9) (MOLM-13 (MLL-AF9) [2]; [4])	Combination with EPZ-5676, OCI-AML-4 (MLL-ENL) Primary screen (OCI-AML-4 (MLL-ENL))	Combination with EPZ-5676, OCI-AML-4 (MLL-ENL) Retest (OCI-AML-4 (MLL-ENL))	Combination with EPZ-5676, MOLM-13 (MLL-AF9) Retest (MOLM-13 (MLL-AF9) [3])	Combination with EPZ-5676, MOLM-13 (MLL-AF9) Primary screen (MOLM-13 (MLL-AF9) [3])	Combination with EPZ-5676, SKM-1 (non-MLLr) Primary screen (SKM-1 (non-MLLr))	Combination with EPZ-5676, SKM-1 (non-MLLr) Retest (SKM-1 (non-MLLr))	MOLM-13 (summary of combination study: EPZ-5676 + 2nd compound) (MOLM-13 cells)	also measured
COc1cc2c(cc1-c1c(C)noc1C)ncc1[nH]c(=O)n([C@H](C)c3ccccn3)c12 [IBET-151]	Synergy (Drug synergy was statistically defined by CI values less than 1)								Combination with Compound A2, SKM-1 AML: Non-rearranged ([1]; Table 2, Example 3): IC50 not achieved; Combination of Compound A2 and anti-cancer agent, MV4-11 (MV4-11 (MLL-AF4); 7 Day Cotreatment): Synergy (A combination index less than one indicates synergy); Combination with Compound A2, MV4-111 MLL-AF4 (MV4-11 (MLL-AF4); Table 2, Example 3): Synergy (Drug synergy was statistically defined by CI values less than 1); Combination with Compound A2, MOLM-13 (MLL-AF9) (MOLM-13 (MLL-AF9) [2]; Table 2, Example 3): Synergy (Drug synergy was statistically defined by CI values less than 1)
C[C@]12C=CC(=O)C=C1CC[C@@H]1[C@@H]2[C@@H](O)C[C@@]2(C)[C@H]1CC[C@]2(O)C(=O)CO [Prednisolone]	Antagonistic (antagonism by CI>1)								Effect of Compound A2 on the antiproliferative activity of the second agent ([1]; SKM-1, non-MLL-rearranged, Example 5): enhanced antiproliferative activity; Combination with Compound A2, MV4-11 (MLL-AF4) (MV4-11 (MLL-AF4)): Antagonistic (antagonism by CI>1); Combination with Compound A2, MV4-11 (MLL-AF4) (MV4-11 (MLL-AF4); listed as prednisolone): antagonism; Combination with Compound A2, MOLM-13 (MLL-AF9) (MOLM-13 (MLL-AF9) [2]; 7 Day Cotreatment Model, Table 4, listed as prednisolone): antagonism
O=C(Nc1ccc2[nH]nc(-c3ccncc3)c2c1)[C@@H]1CCN(CC(=O)N2CCN(c3ccc(-c4ncccn4)cc3)CC2)C1 [SCH772984]		Synergy (considered synergistic if the GI100 (Growth inhibition 100) value of the second compound decreased by 2-fold or more when EPZ-5676 was added as compared to the DMSO control)	Synergy (considered synergistic if the GI100 (Growth inhibition 100) value of the second compound decreased by 2-fold or more when EPZ-5676 was added as compared to the DMSO control)	Synergy (considered synergistic if the GI100 (Growth inhibition 100) value of the second compound decreased by 2-fold or more when EPZ-5676 was added as compared to the DMSO control)	Synergy (considered synergistic if the GI100 (Growth inhibition 100) value of the second compound decreased by 2-fold or more when EPZ-5676 was added as compared to the DMSO control)	Synergy (considered synergistic if the GI100 (Growth inhibition 100) value of the second compound decreased by 2-fold or more when EPZ-5676 was added as compared to the DMSO control)	Synergy (considered synergistic if the GI100 (Growth inhibition 100) value of the second compound decreased by 2-fold or more when EPZ-5676 was added as compared to the DMSO control)	Synergy (considered synergistic if the IC50 value of the second compound decreased by 2-fold or more when EPZ-5676 was added as compared to the DMSO control)	SKM-1 (summary of combination study: EPZ-5676 + 2nd compound) (SKM-1 cells): Synergy (considered synergistic if the IC50 value of the second compound decreased by 2-fold or more when EPZ-5676 was added as compared to the DMSO control)
Cn1cnc2c(F)c(Nc3ccc(Br)cc3Cl)c(C(=O)NOCCO)cc21 [Selumetinib (AZD6244), Selumetinib]		Synergy (considered synergistic if the GI100 (Growth inhibition 100) value of the second compound decreased by 2-fold or more when EPZ-5676 was added as compared to the DMSO control)	Synergy (considered synergistic if the GI100 (Growth inhibition 100) value of the second compound decreased by 2-fold or more when EPZ-5676 was added as compared to the DMSO control)	Synergy (considered synergistic if the GI100 (Growth inhibition 100) value of the second compound decreased by 2-fold or more when EPZ-5676 was added as compared to the DMSO control)	Synergy (considered synergistic if the GI100 (Growth inhibition 100) value of the second compound decreased by 2-fold or more when EPZ-5676 was added as compared to the DMSO control)	Synergy (considered synergistic if the GI100 (Growth inhibition 100) value of the second compound decreased by 2-fold or more when EPZ-5676 was added as compared to the DMSO control)	Synergy (considered synergistic if the GI100 (Growth inhibition 100) value of the second compound decreased by 2-fold or more when EPZ-5676 was added as compared to the DMSO control)	Synergy (considered synergistic if the IC50 value of the second compound decreased by 2-fold or more when EPZ-5676 was added as compared to the DMSO control)	
CC(C)Nc1cc(-c2c[nH]c(C(=O)N[C@H](CO)c3cccc(Cl)c3)c2)c(Cl)cn1 [Ulixertinib]			Synergy (considered synergistic if the GI100 (Growth inhibition 100) value of the second compound decreased by 2-fold or more when EPZ-5676 was added as compared to the DMSO control)	Synergy (considered synergistic if the GI100 (Growth inhibition 100) value of the second compound decreased by 2-fold or more when EPZ-5676 was added as compared to the DMSO control)			Synergy (considered synergistic if the GI100 (Growth inhibition 100) value of the second compound decreased by 2-fold or more when EPZ-5676 was added as compared to the DMSO control)		
